Results: ChEMBL document CHEMBL3272159, “Synthesis and antihypertensive activity of 1-amino-3,4-dihydroisoquinolines” (1977)

System: Rattus norvegicus
Assay: Antihypertensive activity in po dosed renal hypertensive rat assessed as dose required to produce lowering of blood pressure to <= 130 mm after 2 to 24 hrs by photoelectric tensometric analysis
Type: functional

SMILES	ED50 [mg/kg]
COc1cccc(/C=N/NC2=NCCc3ccccc32)c1OC.Cl	> 50
NNC1=NCCc2ccccc21	30
COc1ccc(NC2=NCCc3ccccc32)cc1	> 50
COc1ccc(CCNC2=NCCc3ccccc32)cc1OC.O=S(=O)(O)O	> 50
Cl.NC1=NCCc2ccccc21	> 50
O=S(=O)(O)c1cccc2c(S(=O)(=O)O)cccc12.c1ccc(CONC2=NCCc3ccccc32)cc1	> 50
C/C=N/NC1=NCCc2ccccc21.O=S(=O)(O)O	15
COc1cc(/C=N/NC2=NCCc3ccccc32)cc(OC)c1O.Cl	> 50
O=S(=O)(O)O.c1ccc2c(c1)CCN=C2NN=C1CCCCC1	> 50
O=S(=O)(O)O.c1ccc2c(c1)CCN=C2NCCc1ccc2c(c1)OCO2	> 50
CC1Cc2ccccc2C(NN)=N1.Cl (stereo unspecified)	40
CCN(CC)CCOc1ccc(CNC2=NCCc3ccccc32)cc1.O=S(=O)(O)c1cccc2c(S(=O)(=O)O)cccc12	> 50
CC(C)=NNC1=NCCc2ccccc21.O=S(=O)(O)O	15
O=S(=O)(O)O.c1ccc2c(c1)CCN=C2NCc1ccncc1	> 50
NNc1nncc2ccccc12 [HYDRALAZINE]	10
CN(C)CCNC1=NCCc2ccccc21.Cl	> 50
COc1cc(CCNC2=NCCc3ccccc32)cc(OC)c1OC.O=S(=O)(O)O	> 50
Nc1ccc(CCNC2=NCCc3ccccc32)cc1Cl.O=S(=O)(O)O	> 50
Cl.Oc1ccc(CCNC2=NCCc3ccccc32)cc1O	> 50
F[B-](F)(F)F.[NH3+]NC1=NCC(O)c2ccccc21 (stereo unspecified)	> 50
C(=N\NC1=NCCc2ccccc21)/c1ccccc1.Cl	> 50
CN(C)NC1=NCCc2ccccc21.Cl	> 50
C/C=C/C(C)=N\NC1=NCCc2ccccc21.O=S(=O)(O)O	> 50
Cl.c1ccc2c(c1)CCN=C2N1CCCCC1	> 50
CCCC/C=N/NC1=NCCc2ccccc21.Cl	> 50
CCCCCCNC1=NCCc2ccccc21.O=S(=O)(O)O	> 50
